Assays:
[1] = tested on: whole-cell lysates of P. aeruginosa strains; assay: DRaCALA analysis of cdiGMP binding by whole-cell lysates of P. aeruginosa strains
[2] = biological target: T1, P. aeruginosa Alg44PilZ (His-MBP-Alg44PilZ) (Pseudomonas aeruginosa, UniProt Q9HY69); assay: biochemical; assay type: binding
T1 construct: His-MBP-Alg44PilZ was varied from 100 μM to 6 nM; made in house; host or cells: E. coli BL21(DE3)
Excerpt: DRaCALA exploits the ability of nitrocellulose membranes to preferentially sequester proteins over small molecule ligands. When a mixture of protein and radiolabeled ligand is spotted onto a dry nitrocellulose membrane, protein and bound ligand are immobilized at the site of contact while free ligand is mobilized by capillary action with the liquid phase (FIG. 1A). DRaCALA is a rapid assay, as the capillary action can be completed in less than 5 seconds. […] Because capillary action distributes the unbound ligand throughout the mobile phase, the calculation for the fraction bound (FB) can be corrected for this background (see below for edge effects at the solvent front and annulation of the protein). Therefore, FB is defined by the equation in FIG. 1B, where Iinner is the intensity of signal in the area with protein (inner circle) and Itotal is the total signal of the entire sample (outer circle). The Iinner signal consists of both ligand bound to protein and unbound ligand that has not mobilized beyond the area of the inner circle, which we define as Ibackground. Ibackground can be calculated by subtracting the signal intensity of the Iinner from the total ligand Itotal and adjusting for the relative areas of the inner (Ainner) and outer circles (Atotal) (FIG. 1B).
Radiolabeled ligands were incubated with each of the proteins and the mixtures were spotted on nitrocellulose. After spreading by capillary action, membranes were dried and quantitated by phosphorimager. […] The specificity of Alg44PilZ binding to cdiGMP was further tested by competition with excess unlabeled nucleotides (400-fold molar excess relative to the Alg44PilZ protein).
Kd can be measured by altering either the protein or ligand concentrations in titration experiments; since DRaCALA detects only the ligand mobility, ligand concentrations can be always held constant. […] Since the assay is completed in less than 5 seconds, DRaCALA can also be used to determine the koff for those protein-ligand complexes with slower off rates. koff was determined for cdiGMP and Alg44PilZ by spotting at the indicated time points after the addition of 1 mM unlabeled cdiGMP to a pre-incubated mixture of Alg44PilZ and ^32P-cdiGMP (FIG. 3C). […] Both edge and annulation effects are explained in FIG. 8. The edge effect is due to evaporation of the solvent during the time of the experiment, and is dependent on the humidity of the local environment around the nitrocellulose support. The evaporation results in a smaller total area (Atotal observed in FIG. 8A) and leads to an increased value in the calculated Ibackground. As a secondary correction for the edge effect, the fraction bound determined for spotted ligand in the absence of protein can be subtracted from all samples in parallel (FIG. 8B).

HisMBP-Alg44PilZ = biological target: T2, HisMBP-Alg44PilZ (Pseudomonas aeruginosa, UniProt Q9HY69); assay: DRaCALA competition of cold nucleotides with 32P-cdiGMP binding to HisMBP-Alg44PilZ; parameters: species or system P. aeruginosa; settings: 4 nM 32P-cdiGMP
T2 construct: His-MBP-Alg44PilZ was varied from 100 μM to 6 nM; made in house; host or cells: E. coli BL21(DE3)
Procedure: FIG. 2. Detection of specific protein-ligand interactions by DRaCALA. (A) DRaCALA images of interactions between purified proteins (20 μM) incubated with 500 nM ^14C-cAMP, 4 nM ^32P-ATP, or 4 nM ^32P-cdiGMP. Protein-ligand mixtures were spotted on nitrocellulose and allowed to dry prior to imaging using a Fuji FLA7100 phosphorimager. Cognate protein-nucleotide combinations are indicated by arrowheads. MBP was used as a negative control. (B) DRaCALA images of competition assays assessing the ability of 1 mM of the indicated cold nucleotides to compete with binding interactions between 4 nM ^32P-cdiGMP and 2.5 μM HisMBP-Alg44PilZ. (C) Graph of fraction bound for each sample in […] with averages indicated by a horizontal bar. NC indicates no competitor. P values were determined by a Student's t-test for significant differences when compared to the no-competitor (NC) control for three independent experiments. For total intensity of each DRaCALA spot in FIGS. 2A and 2B, see Tables 1 and 2, respectively.
Radiolabeled ligands were incubated with each of the proteins and the mixtures were spotted on nitrocellulose. After spreading by capillary action, membranes were dried and quantitated by phosphorimager. […] Each of the radiolabel signals from MBP mixtures was distributed by capillary action (FIG. 2A). […] The specificity of Alg44PilZ binding to cdiGMP was further tested by competition with excess unlabeled nucleotides (400-fold molar excess relative to the Alg44PilZ protein). Alg44PilZ binding to ^32P-cdiGMP was abolished by cdiGMP, but not by cGMP, GMP, GDP, GTP, ATP, CTP or UTP as was previously described (FIG. 2B). The FB for cdiGMP was 0.31±0.07, which was reversed by competition with unlabeled cdiGMP to the background level of 0.04±0.01 (FIG. 2C).
Protein or whole cell lysates in 1× cdiGMP binding buffer (20 μl) was mixed with 4 nM of radiolabeled nucleotide and allowed to incubate for 10 minutes at room temperature. Radiolabeled nucleotide was competed away by cold nucleotides in concentrations and for times indicated. Purified proteins were tested in technical replicates. Whole cell lysates in FIG. 4 and FIG. 12 were tested in biological triplicates. Whole cell lysates in FIG. 5 were tested in technical replicates. These mixtures were pipetted (2.5-5 μl) onto dry, untreated nitrocellulose (GE Healthcare) in triplicate and allowed to dry completely before quantification. An FLA7100 Fujifilm Life Science Phosphorimager was used to detect luminescence following a 5-minute exposure of blotted nitrocellulose to phosphorimager film. Data was quantified using Fujifilm Multi Gauge software v3.0.

T1 sequence (Q9HY69 16-116): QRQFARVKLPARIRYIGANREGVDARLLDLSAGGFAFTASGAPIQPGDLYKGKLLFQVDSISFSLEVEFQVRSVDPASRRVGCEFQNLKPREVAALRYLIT
T2 sequence (Q9HY69 16-116): as above

Nc1nc2c(ncn2[C@@H]2O[C@@H]3CO[P@](=O)(O)O[C@H]4[C@@H](O)[C@H](n5cnc6c(=O)[nH]c(N)nc65)O[C@@H]4CO[P@](=O)(O)O[C@H]3[C@H]2O)c(=O)[nH]1 [cdiGMP, cyclic-di-GMP]
BSp ([1]; PA14 overexpressing diguanylate cyclase WspR): 1.19
BSp ([1]; PA14 overexpressing phosphodiesterase RocR): 3.51
BSp ([1]; PA14ΔpelD overexpressing RocR): 2.70
average BSp of strain groups isolated from different sources ([1]; all groups): greater than 1.48
Average Bc ([1]; average over all P. aeruginosa lysates of the table): 0.185
BSp ([1]; wild-type PA14 extract): 1.27
Kd [2]: 1600 nM
koff [2]: 0.017 ± 0.002 s⁻¹
binding to Alg44PilZ (sequestration of radiolabel signal) ([2]; 20 μM purified protein, 500 nM 14C-cAMP, 4 nM 32P-ATP or 4 nM 32P-cdiGMP): bound
time until 32P-cdiGMP binding completely competed away ([2]; 1 mM unlabeled cdiGMP): ≤ 90 s
half-life (t1/2) ([2]; corresponding to koff, DRaCALA): 35.6 ± 10.7 s
fraction bound (FB) after competition with unlabeled cdiGMP (HisMBP-Alg44PilZ; 1 mM unlabeled cdiGMP): 0.04±0.01
fraction bound (FB) (HisMBP-Alg44PilZ; no competitor): 0.31±0.07
Alg44PilZ binding to 32P-cdiGMP abolished by unlabeled nucleotide (HisMBP-Alg44PilZ; 1 mM cold nucleotide (400-fold molar excess over protein)): abolished

— patent US20130337579A1, “Methods for Determining Protein Ligand Binding” (UNIVERSITY OF MARYLAND, COLLEGE PARK, priority 2010, published 2013)
